Measurements published in ChEMBL document CHEMBL4706556, “Unraveling the anti-influenza effect of flavonoids: Experimental validation of luteolin and its congeners as potent influenza endonuclease inhibitors” (Eur J Med Chem, 2020).
Structures can show the parent of a compound that is named as a salt. Active and inactive are the calls of the source. No cut-off for these calls is given here.

Experiments:
[1] = Inhibition of biotinylated 5-(4-((Z)-3-Carboxy-3-hydroxyacryloyl)-4-(4-chlorobenzyl)piperidine-1-carbonyl)-2-((13,35-dioxo-39-((3aR,4R,6aS)-2-oxohexahydro-1H-thieno[3,4-d]imidazole-4-yl)-3,6,9,16,19,22,25,28,31-nonaoxa-12,34-diazanonatriacontyl)oxy)benzoic acid binding to Influenza A virus (A/California/07/2009(H1N1)) N-terminal GST-tagged polymerase acidic subunit N-terminal domain expressed in Escherichia coli BL21 (DE3) RIL cells measured after 120 mins by Alphascreen assay
[2] = test system: Influenza A virus (A/California/07/2009(H1N1)); experiment: Inhibition of Influenza A virus (A/California/07/2009(H1N1)) neuraminidase at 400 uM by DNA-linked inhibitor antibody assay
[3] = test system: Influenza A virus (A/California/07/2009(H1N1)); experiment: (§1) Inhibition of endonuclease activity of Influenza A virus (A/California/07/2009(H1N1)) N-terminal GST-tagged polymerase acidic subunit N-terminal domain expressed in Escherichia coli BL21 (DE3) RIL cells using single-stranded circular DNA M13mp18 as substrate measured after 4 hrs by GelRed-staining based agarose gel electrophoresis
[4] = test system: Influenza A virus (A/California/07/2009(H1N1)); experiment: as §1, with “cells at 0.01 to 100 uM” for “cells”; conditions: dose 0.01-100 µM
[5] = test system: Influenza A virus
[6] = Inhibition of Influenza A virus (A/California/07/2009(H1N1)) neuraminidase by DNA-linked inhibitor antibody assay

Compound	IC50 [1] [µM]	further results
O=c1c(O)c(-c2ccc(O)cc2)oc2cc(O)cc(O)c12 [KAEMPFEROL]	16	–
COc1c(O)cc2oc(-c3ccc(O)c(O)c3)cc(=O)c2c1O [EUPAFOLIN]	0.93	–
COc1ccc(/C=C/C(=O)/C=C(O)/C=C/c2ccc(OC)c(OC)c2)cc1OC [DIMETHYLCURCUMIN]	> 50	–
O=C1c2c(O)c(=O)ccn2N([C@@H]2c3ccccc3SCc3c2ccc(F)c3F)[C@@H]2COCCN12 [BALOXAVIR]	0.024	–
O=C(/C=C(O)/C=C/c1ccc(O)c(O)c1)/C=C/c1ccc(O)c(O)c1	1.7	inhibition [2]: inactive; inhibition [3]: Active
O=c1c(O)c(-c2ccc(O)c(O)c2)oc2cc(O)cc(O)c12 [QUERCETIN]	0.67	inhibition [4]: Active; inhibition [2]: inactive
O=c1cc(-c2cccc(O)c2)oc2cccc(O)c12	> 50	–
O=c1cc(-c2ccc(O)cc2)oc2c([C@@H]3O[C@H](CO)[C@@H](O)[C@H](O)[C@H]3O)c(O)cc(O)c12 [VITEXIN]	1.9	inhibition [2]: inactive
O=C(/C=C/c1ccc(O)c(O)c1)O[C@@H]1C[C@](O)(C(=O)O)C[C@@H](O)[C@H]1O [CHLOROGENIC ACID]	> 50	inhibition [2]: inactive
O=C(O[C@@H]1Cc2c(O)cc(O)cc2O[C@@H]1c1cc(O)c(O)c(O)c1)c1cc(O)c(O)c(O)c1 [EPIGALOCATECHIN GALLATE]	0.87	inhibition [2]: inactive; inhibition [3]: Active
O=C(/C=C(O)/C=C/c1ccc(O)cc1)/C=C/c1ccc(O)cc1	> 50	–
COc1cc(/C=C/C(=O)CC(=O)/C=C/c2ccc(O)c(OC)c2)ccc1O [CURCUMIN]	25	–
O=c1cc(-c2ccccc2O)oc2cc(O)cc(O)c12	> 50	–
O=c1oc(-c2ccc(O)c(O)c2)cc2cccc(O)c12 [THUNBERGINOL A]	1.4	–
O=c1cc(-c2ccc(O)cc2)oc2cc(O)cc(O)c12 [APIGENIN]	> 50	–
O=C(O)/C(O)=C/C(=O)C1(Cc2ccc(Cl)cc2)CCN(Cc2ccccc2)CC1	0.026	IC50 [5]: 0.43 µM
O=c1c(O)c(-c2ccc(O)cc2O)oc2cc(O)cc(O)c12 [MORIN]	9	–
O=C(NC(O)C(=O)O)c1ccccc1 (stereo not drawn)	> 50	–
O=c1cc(-c2ccc(O)c(O)c2)oc2c([C@@H]3O[C@H](CO)[C@@H](O)[C@H](O)[C@H]3O)c(O)cc(O)c12 [ORIENTIN]	0.043	–
O=C1c2c(O)cc(O)cc2O[C@H](c2cc(O)c(O)c(O)c2)[C@H]1O [AMPELOPSIN]	22	–

Compound	IC50 [1] [µM]	further results
O=C1N[C@@H]2C(=C[C@H](O)[C@@H](O)[C@H]2O)c2cc3c(c(O)c21)OCO3 [NARCICLASINE]	> 50	–
O=c1c(O)c(-c2cc(O)c(O)c(O)c2)oc2cc(O)cc(O)c12 [MYRICETIN]	0.76	inhibition [2]: inactive; inhibition [3]: Active
O=c1cc(-c2ccc(O)c(O)c2)oc2ccccc12	2.4	–
O=c1cc(-c2ccc(O)c(O)c2)oc2cccc(O)c12	1.3	–
O=C1C[C@@H](c2ccc(O)c(O)c2)Oc2cc(O)cc(O)c21 [ERIODICTYOL]	18	–
COc1cc(O)c2c(=O)c(OC)c(-c3ccc(OC)c(OC)c3)oc2c1 [RETUSIN]	> 50	–
O=c1cc(-c2ccc(O)c(O)c2)[nH]c2cc(O)cc(O)c12	–	inhibition [3]: Active
O=c1cc(-c2ccc(O)c(O)c2)oc2cc(O)cc(O)c12 [LUTEOLIN]	0.072	inhibition [2]: inactive; inhibition [3]: Active
Oc1cc(O)c2c(c1)O[C@H](c1ccc(O)c(O)c1)[C@@H](O)C2 [CIANIDANOL]	42	–
O=C1c2c(O)cc(O)cc2O[C@H](c2ccc(O)c(O)c2)[C@H]1O [(+)-TAXIFOLIN]	50	–
Cc1cc2c(C(C)C)c(O)c(O)c(C=O)c2c(O)c1-c1c(C)cc2c(C(C)C)c(O)c(O)c(C=O)c2c1O [GOSSYPOL]	13	–
Oc1cc(O)c2c(c1)O[C@H](c1ccc(O)c(O)c1)[C@H](O)C2 [(-)-EPICATECHIN]	> 50	–
O=c1c(O)cccc2cc(O)c(O)c(O)c12 [PURPUROGALLIN]	1.5	–
COc1cc(OC)c2c(=O)c(OC)c(-c3ccc(OC)c(OC)c3)oc2c1	> 50	–
O=c1c(O)c(-c2ccc(O)c(O)c2)[nH]c2cc(O)cc(O)c12	0.2	–
O=c1cc(-c2cccc(O)c2)oc2cc(O)cc(O)c12	> 50	–
COc1cc([C@H]2Oc3cc([C@H]4Oc5cc(O)cc(O)c5C(=O)[C@@H]4O)ccc3O[C@@H]2CO)ccc1O [SILYBIN A]	> 50	–
O=C1C=C(O)C(=O)c2c(O)c(O)cc(O)c21	0.43	–
C[C@@H]1O[C@@H](Oc2c(-c3cc(O)c(O)c(O)c3)oc3cc(O)cc(O)c3c2=O)[C@H](O)[C@H](O)[C@H]1O	1.8	–
COc1cc([C@@H]2[C@H]3CO[C@@]4(C)C(=O)[C@@H]2C=C([C@H]2Oc5cc(O)cc(O)c5C(=O)[C@@H]2O)[C@@H]34)ccc1O	> 50	–

Compound	IC50 [1] [µM]	further results
Oc1cc(O)c2c(c1)O[C@H](c1cc(O)c(O)c(O)c1)[C@H](O)C2 [EPIGALLOCATECHIN]	3.3	–
CCC(CC)O[C@@H]1C=C(C(=O)O)C[C@H](N)[C@H]1NC(C)=O [OSELTAMIVIR CARBOXYLATE]	–	Ki [6]: 0.039 µM
COc1cc(OC)c2c(=O)cc(-c3cc(OC)c(OC)c(OC)c3)oc2c1	1.8	–
Oc1cc(O)c2c(c1)O[C@@H](c1ccc(O)c(O)c1)[C@H](O)C2 [(-)-CATECHIN]	> 50	–
Oc1ccc(C2CNCCc3c2cc(O)c(O)c3Cl)cc1 (stereo not drawn) [FENOLDOPAM MESYLATE]	31	–
CC(C)=CCC1=C(O)C(=O)c2ccccc2C1=O [LAPACHOL]	19	–
O=c1cc(-c2cc(O)c(O)c(O)c2)oc2cc(O)cc(O)c12 [TRICETIN]	0.16	–
O=c1cc(-c2ccc(O)c(O)c2)oc2cc(O[C@@H]3O[C@H](CO)[C@@H](O)[C@H](O)[C@H]3O)cc(O)c12 [GALUTEOLIN]	32	–
COc1ccc(-c2cc(=O)c3c(O)cc(O)cc3o2)cc1O [DIOSMETIN]	> 50	–
COc1cc([C@@H]2Oc3c(O)cc([C@H]4Oc5cc(O)cc(O)c5C(=O)[C@@H]4O)cc3[C@H]2CO)ccc1O [SILICRISTIN A]	> 50	–
O=c1c(O[C@@H]2OC[C@H](O)[C@H](O)[C@H]2O)c(-c2ccc(O)c(O)c2)oc2cc(O)cc(O)c12 [GUAJAVERIN]	17	–
O=c1c(-c2ccc(O)cc2)coc2cc(O)cc(O)c12 [GENISTEIN]	> 50	–
O=c1cc(-c2ccc(O)c(O)c2)oc2cc(O)c([C@@H]3O[C@H](CO)[C@@H](O)[C@H](O)[C@H]3O)c(O)c12 [ISOORIENTIN]	> 50	–
O=c1c(O)c(-c2ccc(O)c(O)c2)oc2cc(O)ccc12 [FISETIN]	0.96	–
O=C(c1ccc(O)c(O)c1)C1(O)Oc2cc(O)cc(O)c2C1=O (stereo not drawn)	9.8	–
CCn1cc(C(=O)O)c(=O)c2ccc(C)nc21 [NALIDIXIC ACID]	> 50	–
CCCCC(=O)C1=C(O)C(=O)c2c(O)c(O)cc(O)c2C1=O	0.29	inhibition [2]: inactive; inhibition [3]: Active
O=c1cc(-c2cccc(O)c2O)oc2cc(O)cc(O)c12	17	–
